Laboratory results from DBAASP.
Values after ≈ are worked out from the molar mass of the structure shown.

Assays:
Experiment in all cases: ≥ marks a high value that may be exact or a test limit, other limits are often not marked, values filed in µg/mL are converted to µM
[1] = test system: Pseudomonas aeruginosa
[2] = test system: Bacillus subtilis 168
[3] = test system: Escherichia coli B
[4] = test system: Staphylococcus aureus
[5] = test system: Candida albicans F7-39/IDE99
[6] = test system: Klebsiella pneumoniae ATCC 13885
[7] = test system: Escherichia coli ATCC 8739
[8] = test system: Enterococcus faecalis ATCC 12953
[9] = test system: Streptococcus pyogenes ATCC 19615
[10] = test system: Pseudomonas aeruginosa ATCC 15442
[11] = test system: Staphylococcus aureus ATCC 29213
[12] = test system: Bacillus subtilis ATCC 6633
[13] = test system: Proteus mirabilis ATCC 25933
[14] = test system: Salmonella enterica subsp. enterica serovar Typhimurium ATCC 14028
[15] = test system: Escherichia coli 804
[16] = test system: Escherichia coli 780
[17] = test system: Staphylococcus aureus 113
[18] = test system: Pseudomonas aeruginosa 50
[19] = test system: Acinetobacter baumannii ATCC 19606
[20] = test system: Pseudomonas aeruginosa ATCC 9027
[21] = test system: Klebsiella pneumoniae ATCC 700603
[22] = test system: Staphylococcus epidermidis ATCC 12228
[23] = test system: Bacillus subtilis ATCC 23857
[24] = test system: Acinetobacter baumannii 9931
[25] = test system: Acinetobacter baumannii 97830
[26] = test system: Staphylococcus aureus 75
[27] = test system: Pseudomonas aeruginosa 73
[28] = test system: Pseudomonas aeruginosa ATCC 27853
[29] = test system: Shigella dysenteriae ATCC 51302
[30] = test system: Streptococcus pneumoniae ATCC 49619
[31] = test system: Escherichia coli ATCC 25922
[32] = test system: Bacillus subtilis ATCC 9372
[33] = test system: Staphylococcus aureus ATCC 25923
[34] = test system: Salmonella typhimurium ATCC 50013
[35] = test system: Escherichia coli W3110
[36] = test system: Klebsiella pneumoniae ATCC BAA-1705

Row | SMILES | MIC [11] [µM] | MIC [15] [µM] | MIC [16] [µM] | MIC [17] [µM] | MIC [18] [µM] | MIC [19] [µM] | MIC [20] [µM] | MIC [21] [µM] | MIC [22] [µM] | MIC [23] [µM] | MIC [24] [µM] | MIC [25] [µM] | MIC [26] [µM] | MIC [27] [µM] | MIC [28] [µM] | MIC [35] [µM] | MIC [36] [µM] | other results
1 | CC[C@H](C)[C@H](NC(=O)[C@H](Cc1cnc[nH]1)NC(=O)[C@H](CCCCN)NC(=O)[C@H](CC(C)C)NC(=O)[C@H](Cc1ccccc1)NC(=O)[C@H](CO)NC(=O)[C@H](CCSC)NC(=O)[C@H](Cc1c[nH]c2ccccc12)NC(=O)[C@H](CCCCN)NC(=O)CN)C(=O)N[C@@H](CC(C)C)C(=O)N[C@@H](CCCCN)C(N)=O [GKWMSFLKHILK] |  |  |  |  |  |  |  |  |  |  |  |  |  |  |  |  |  | MIC [1]: 21.8 µM (≈ 32.4 µg/mL); MIC [2]: 1.1 µM (≈ 1.64 µg/mL); MIC [3]: 4 µM (≈ 5.95 µg/mL); MIC [4]: 6.4 µM (≈ 9.52 µg/mL); MIC [5]: 6.8 µM (≈ 10.1 µg/mL)
2 | NCCCC[C@H](NC(=O)[C@@H](N)CCCCN)C(=O)N[C@@H](Cc1ccccc1)C(=O)N[C@@H](Cc1c[nH]c2ccccc12)C(=O)N[C@@H](CCC(=O)O)C(=O)N[C@@H](CC(=O)O)C(=O)N[C@@H](CC(=O)O)C(=O)NCC(N)=O [KKFWEDDG] | 250 (≈ 256 µg/mL) |  |  |  |  |  |  |  |  |  |  |  |  |  |  |  |  | MIC [6]: ≥ 125 µM; MIC [7]: ≥ 250 µM; MIC [8]: ≥ 125 µM; MIC [9]: ≥ 125 µM; MIC [10]: ≥ 250 µM; MIC [12]: ≥ 250 µM; MIC [13]: ≥ 125 µM; MIC [14]: 125 µM (≈ 128 µg/mL)
3 | C[C@H](N)C(=O)N[C@@H](Cc1c[nH]c2ccccc12)C(=O)N[C@@H](CCCN=C(N)N)C(=O)N[C@@H](Cc1c[nH]c2ccccc12)C(=O)N[C@@H](Cc1c[nH]c2ccccc12)C(=O)N[C@@H](Cc1c[nH]c2ccccc12)C(=O)N[C@@H](CCCN=C(N)N)C(=O)N[C@@H](Cc1c[nH]c2ccccc12)C(=O)N[C@@H](C)C(N)=O [AWRWWWRWA] | 8 (≈ 11.2 µg/mL) | 8 (≈ 11.2 µg/mL) | 16 (≈ 22.4 µg/mL) | 8 (≈ 11.2 µg/mL) | ≥ 32 | 32 (≈ 44.9 µg/mL) | 32 (≈ 44.9 µg/mL) | 8 (≈ 11.2 µg/mL) | 8 (≈ 11.2 µg/mL) | 8 (≈ 11.2 µg/mL) | ≥ 32 | 8 (≈ 11.2 µg/mL) | 4 (≈ 5.61 µg/mL) | ≥ 32 | 32 (≈ 44.9 µg/mL) |  |  | 
4 | CC(C)C[C@H](NC(=O)CN)C(=O)N[C@@H](CO)C(=O)N[C@@H](CCCN=C(N)N)C(=O)N[C@@H](CC(C)C)C(=O)N[C@@H](Cc1ccccc1)C(=O)N[C@H](C(=O)N[C@@H](C)C(=O)N[C@@H](CC(C)C)C(=O)N[C@@H](CCCCN)C(=O)O)[C@@H](C)O [GLSRLFTALK] |  |  |  |  |  |  |  |  |  |  |  |  |  |  | 57.9 (≈ 64 µg/mL) |  |  | MIC [29]: ≥ 232 µM; MIC [30]: ≥ 57.9 µM; MIC [31]: 29 µM (≈ 32 µg/mL); MIC [32]: 14.5 µM (≈ 16 µg/mL); MIC [33]: 14.5 µM (≈ 16 µg/mL); MIC [34]: 29 µM (≈ 32 µg/mL)
5 | CC[C@H](C)[C@H](NC(=O)[C@H](CCCCN)NC(=O)[C@H](CCCCN)NC(=O)[C@H](Cc1c[nH]c2ccccc12)NC(=O)[C@H](CCCCN)NC(=O)[C@H](Cc1c[nH]c2ccccc12)NC(=O)[C@H](CC(C)C)NC(=O)[C@H](CCCCN)NC(=O)[C@H](CC(C)C)NC(=O)CNC(=O)[C@H](Cc1c[nH]c2ccccc12)NC(=O)[C@H](CCCCN)NC(=O)[C@H](C)NC(=O)[C@H](Cc1c[nH]c2ccccc12)NC(=O)[C@H](CCCN=C(N)N)NC(=O)[C@@H](N)Cc1c[nH]c2ccccc12)C(=O)N[C@@H](Cc1ccc(O)cc1)C(=O)O [WRWAKWGLKLWKWKKIY] |  |  |  |  |  |  |  |  |  |  |  |  |  |  |  | 2 (≈ 4.75 µg/mL) | 16 (≈ 38 µg/mL) | 
6 | CC[C@H](C)[C@H](N)C(=O)N[C@@H](CCCN=C(N)N)C(=O)N[C@@H](Cc1c[nH]c2ccccc12)C(=O)N[C@@H](Cc1c[nH]c2ccccc12)C(=O)N[C@@H](Cc1c[nH]c2ccccc12)C(=O)N[C@@H](CCCN=C(N)N)C(=O)N[C@H](C(N)=O)[C@@H](C)CC [IRWWWRI] | 4 (≈ 4.46 µg/mL) | 16 (≈ 17.8 µg/mL) | 16 (≈ 17.8 µg/mL) | 8 (≈ 8.91 µg/mL) | ≥ 32 | 64 (≈ 71.3 µg/mL) | 32 (≈ 35.7 µg/mL) | 32 (≈ 35.7 µg/mL) | 8 (≈ 8.91 µg/mL) | 8 (≈ 8.91 µg/mL) | ≥ 32 | ≥ 32 | 8 (≈ 8.91 µg/mL) | ≥ 32 | 16 (≈ 17.8 µg/mL) |  |  | 
7 | CC[C@H](C)[C@H](N)C(=O)N[C@@H](Cc1c[nH]c2ccccc12)C(=O)N[C@@H](Cc1c[nH]c2ccccc12)C(=O)N[C@@H](C)C(=O)N[C@@H](CCCCN)C(=O)N[C@@H](Cc1c[nH]c2ccccc12)C(=O)NCC(=O)N[C@@H](CC(C)C)C(=O)N[C@@H](CC(=O)O)C(=O)N[C@@H](CC(C)C)C(=O)N[C@@H](CC(C)C)C(=O)N[C@@H](CCCN=C(N)N)C(=O)N[C@@H](Cc1ccc(O)cc1)C(=O)N[C@@H](CCCN=C(N)N)C(=O)N[C@@H](CCCN=C(N)N)C(=O)N[C@H](C(=O)N[C@@H](Cc1c[nH]c2ccccc12)C(=O)O)[C@@H](C)CC [IWWAKWGLDLLRYRRIW] |  |  |  |  |  |  |  |  |  |  |  |  |  |  |  | ≥ 64 | ≥ 128 | 
8 | NC(=O)[C@H](Cc1ccccc1)NC(=O)[C@H](CCCN=C(N)N)NC(=O)[C@H](CCCN=C(N)N)NC(=O)[C@H](Cc1c[nH]c2ccccc12)NC(=O)[C@H](Cc1c[nH]c2ccccc12)NC(=O)[C@H](Cc1c[nH]c2ccccc12)NC(=O)[C@H](CCCN=C(N)N)NC(=O)[C@H](CCCN=C(N)N)NC(=O)[C@@H](N)Cc1ccccc1 [FRRWWWRRF] | 4 (≈ 5.98 µg/mL) | 16 (≈ 23.9 µg/mL) | 16 (≈ 23.9 µg/mL) | 8 (≈ 12 µg/mL) | 4 (≈ 5.98 µg/mL) | 16 (≈ 23.9 µg/mL) | 8 (≈ 12 µg/mL) | 16 (≈ 23.9 µg/mL) | 8 (≈ 12 µg/mL) | 2 (≈ 2.99 µg/mL) | 16 (≈ 23.9 µg/mL) | 8 (≈ 12 µg/mL) | 4 (≈ 5.98 µg/mL) | 16 (≈ 23.9 µg/mL) | 4 (≈ 5.98 µg/mL) |  |  | 
9 | CC[C@H](C)[C@H](N)C(=O)N[C@@H](CC(C)C)C(=O)N[C@H](C(=O)N[C@@H](C)C(=O)N[C@@H](CS)C(=O)N[C@@H](Cc1c[nH]c2ccccc12)C(=O)NCC(=O)N[C@@H](CC(C)C)C(=O)N[C@@H](CCCCN)C(=O)N[C@@H](CC(C)C)C(=O)N[C@@H](CC(C)C)C(=O)N[C@@H](CCCN=C(N)N)C(=O)N[C@@H](Cc1ccc(O)cc1)C(=O)N[C@@H](CCCN=C(N)N)C(=O)N[C@@H](CCCN=C(N)N)C(=O)N[C@H](C(=O)N[C@@H](Cc1ccc(O)cc1)C(=O)O)[C@@H](C)CC)[C@@H](C)CC [ILIACWGLKLLRYRRIY] |  |  |  |  |  |  |  |  |  |  |  |  |  |  |  | 4 (≈ 8.6 µg/mL) | ≥ 128 | 
